Legend:
[1] = target: T1, N-type calcium channel (NTCC) (Homo sapiens, UniProt Q00975); assay: FLIPR calcium mobilization assay for N-type calcium channel; assay type: cell-based; settings: calcium mobilization in vitro assay; differentiated IMR32 cells, 5 μM nitrendipine, 90 mM KCl
T1 construct: host or cells: IMR32 cells differentiated with dibutyryl cAMP and bromodeoxyuridine
Experimental: Unless noted otherwise, cell culture reagents were purchased from Mediatech of Herndon, Md. IMR32 cells (American Type Culture Collection, ATCC, Manassas, Va.) were routinely cultured in growth medium consisting of minimum essential medium containing 10% fetal bovine serum (FBS, Hyclone, Logan, Utah), 100 U/mL penicillin, 100 μg/mL streptomycin, 2 mM L-glutamine, 1 mM sodium pyruvate, and 1×MEM non-essential amino acids. 80-90% confluent flasks of cells were differentiated using the following differentiation medium: Growth medium plus 1 mM dibutyryl cyclic AMP (Sigma, St. Louis, Mo.), and 2.5 μM bromodeoxyuridine (Sigma). Cells were differentiated for 8 days by replacing differentiation medium every 2-3 days.
FLIPR Calcium Mobilization Assay for N-type Calcium Channel.
One day prior to performing this assay, differentiated IMR32 cells were treated with 1× CellStripper, and seeded on poly-D-lysine-coated 96-well clear-bottom black plates (Becton Dickinson, Franklin Lakes, N.J.) at 200,000 cells/well. On the day of the assay, the cell plates were washed with IMR32 buffer (127 mM NaCl, 1 mM KCl, 2 mM MgCl2, 700 μM NaH2PO4, 5 mM CaCl2, 5 mM NaHCO3, 8 mM HEPES, 10 mM glucose, pH7.4), then pre-stimulated with KCl and loaded as follows: 0.05 mL of IMR32 buffer, 0.05 mL of each compound tested diluted in IMR32 buffer containing 20 μM nitrendipine (Sigma), and 0.1 mL KCl dissolved in IMR32 buffer, plus Fluo-4 were added (3 μM final concentration, Molecular Probes, Eugene, Oreg.). Final test compound concentrations ranged from about 846 pM to about 17 μM, final nitrendipine concentration was 5 μM, and final KCl concentration was 90 mM. After 1 hour, the cells were washed twice with 0.05 mL of each compound tested in nitrendipine-containing IMR32 buffer (no KCl or Fluo-4), and then replaced with 0.1 mL of each compound tested in nitrendipine-containing IMR32 buffer. Plates were then transferred to a Fluorimetric Imaging Plate Reader (FLIPR^96, Molecular Devices, Inc., Sunnyvale, Calif.) for assay. The FLIPR measured basal Fluo-4 fluorescence for 315 seconds (i.e., 5 minutes and 15 seconds), then added 0.1 mL KCl agonist dissolved in IMR32 buffer and measured fluorescence for another 45 seconds. Final test compound concentrations on the cells after FLIPR read ranged from about 846 pM to about 17 μM, final nitrendipine concentration was 5 μM, and final KCl concentration was 90 mM. Data were collected over the entire time course and analyzed using Excel, Graph Pad Prism (version 3.02, Graph Pad, San Diego, Calif.), or an in-house non-linear regression analysis software.

[2] = target: T2, L-type calcium channel (LTCC) (Rattus norvegicus, UniProt P22002); assay: FLIPR calcium mobilization assay for L-type calcium channel; assay type: cell-based; settings: calcium mobilization in vitro assay; HEK293 cells stably expressing recombinant rat LTCC subunits (α1c, α2δ, β1), 90 mM KCl
T2 construct: The 6.5 kb cDNA encoding the L-type calcium channel α1c subunit was cloned by PCR amplification from rat heart cDNA; expressed in transfected cells
Experimental: Recombinant human embryonal kidney cells (HEK293, ATCC) stably transfected with either N-type calcium channel (NTCC) subunits (α1b, α2δ, and β3) or L-type calcium channel (LTCC) subunits (α1c, α2δ, and β1) were routinely cultured in growth medium consisting of Dulbecco's Modified Eagles Medium containing 10% FBS, 100 U/mL penicillin, 100 μg/mL streptomycin, 4 mM L-glutamine, 500 μg/mL geneticin (G418), 20 μg/mL Blasticidin S (InVivogen, San Diego, Calif.) and 500 μg/mL zeocin (InVivogen).
FLIPR Calcium Mobilization Assay for L-type Calcium Channel.
One day prior to performing this assay, HEK293 cells stably expressing recombinant rat L-type calcium channel (LTCC) subunits (α1c, α2δ, and β1) were trypsinized, then seeded on poly-D-lysine-coated 96-well clear-bottom black plates (Becton Dickinson, Franklin Lakes, N.J.) at 75,000 cells/well. On the day of the assay, the plates were washed with LTCC wash buffer (127 mM NaCl, 2 mM MgCl2, 700 μM NaH2PO4, 5 mM CaCl2, 5 mM NaHCO3, 8 mM HEPES, 10 mM glucose, pH7.4), then loaded with 0.1 mL of LTCC wash buffer containing Fluo-4 (3 μM final concentration, Molecular Probes, Eugene, Oreg.). After 1 hour, the cells were washed with 0.1 mL LTCC wash buffer and resuspended in 0.05 mL LTCC assay buffer (same composition as LTCC wash buffer). Plates were then transferred to a FLIPR^96 for assay. The FLIPR measured basal Fluo-4 fluorescence for 15 seconds, then added 0.05 mL of each compound tested diluted in LTCC assay buffer at final concentrations ranging from about 846 pM to about 17 μM. Fluo-4 fluorescence was then measured for 5 minutes. 0.1 mL KCl agonist dissolved in LTCC assay buffer was then added to the cells to produce a final concentration of 90 mM KCl, and fluorescence was measured for another 45 seconds. Data were collected over the entire time course and analyzed using Excel, Graph Pad Prism, or an in-house regression analysis software.

T1 sequence (Q00975 whole entry): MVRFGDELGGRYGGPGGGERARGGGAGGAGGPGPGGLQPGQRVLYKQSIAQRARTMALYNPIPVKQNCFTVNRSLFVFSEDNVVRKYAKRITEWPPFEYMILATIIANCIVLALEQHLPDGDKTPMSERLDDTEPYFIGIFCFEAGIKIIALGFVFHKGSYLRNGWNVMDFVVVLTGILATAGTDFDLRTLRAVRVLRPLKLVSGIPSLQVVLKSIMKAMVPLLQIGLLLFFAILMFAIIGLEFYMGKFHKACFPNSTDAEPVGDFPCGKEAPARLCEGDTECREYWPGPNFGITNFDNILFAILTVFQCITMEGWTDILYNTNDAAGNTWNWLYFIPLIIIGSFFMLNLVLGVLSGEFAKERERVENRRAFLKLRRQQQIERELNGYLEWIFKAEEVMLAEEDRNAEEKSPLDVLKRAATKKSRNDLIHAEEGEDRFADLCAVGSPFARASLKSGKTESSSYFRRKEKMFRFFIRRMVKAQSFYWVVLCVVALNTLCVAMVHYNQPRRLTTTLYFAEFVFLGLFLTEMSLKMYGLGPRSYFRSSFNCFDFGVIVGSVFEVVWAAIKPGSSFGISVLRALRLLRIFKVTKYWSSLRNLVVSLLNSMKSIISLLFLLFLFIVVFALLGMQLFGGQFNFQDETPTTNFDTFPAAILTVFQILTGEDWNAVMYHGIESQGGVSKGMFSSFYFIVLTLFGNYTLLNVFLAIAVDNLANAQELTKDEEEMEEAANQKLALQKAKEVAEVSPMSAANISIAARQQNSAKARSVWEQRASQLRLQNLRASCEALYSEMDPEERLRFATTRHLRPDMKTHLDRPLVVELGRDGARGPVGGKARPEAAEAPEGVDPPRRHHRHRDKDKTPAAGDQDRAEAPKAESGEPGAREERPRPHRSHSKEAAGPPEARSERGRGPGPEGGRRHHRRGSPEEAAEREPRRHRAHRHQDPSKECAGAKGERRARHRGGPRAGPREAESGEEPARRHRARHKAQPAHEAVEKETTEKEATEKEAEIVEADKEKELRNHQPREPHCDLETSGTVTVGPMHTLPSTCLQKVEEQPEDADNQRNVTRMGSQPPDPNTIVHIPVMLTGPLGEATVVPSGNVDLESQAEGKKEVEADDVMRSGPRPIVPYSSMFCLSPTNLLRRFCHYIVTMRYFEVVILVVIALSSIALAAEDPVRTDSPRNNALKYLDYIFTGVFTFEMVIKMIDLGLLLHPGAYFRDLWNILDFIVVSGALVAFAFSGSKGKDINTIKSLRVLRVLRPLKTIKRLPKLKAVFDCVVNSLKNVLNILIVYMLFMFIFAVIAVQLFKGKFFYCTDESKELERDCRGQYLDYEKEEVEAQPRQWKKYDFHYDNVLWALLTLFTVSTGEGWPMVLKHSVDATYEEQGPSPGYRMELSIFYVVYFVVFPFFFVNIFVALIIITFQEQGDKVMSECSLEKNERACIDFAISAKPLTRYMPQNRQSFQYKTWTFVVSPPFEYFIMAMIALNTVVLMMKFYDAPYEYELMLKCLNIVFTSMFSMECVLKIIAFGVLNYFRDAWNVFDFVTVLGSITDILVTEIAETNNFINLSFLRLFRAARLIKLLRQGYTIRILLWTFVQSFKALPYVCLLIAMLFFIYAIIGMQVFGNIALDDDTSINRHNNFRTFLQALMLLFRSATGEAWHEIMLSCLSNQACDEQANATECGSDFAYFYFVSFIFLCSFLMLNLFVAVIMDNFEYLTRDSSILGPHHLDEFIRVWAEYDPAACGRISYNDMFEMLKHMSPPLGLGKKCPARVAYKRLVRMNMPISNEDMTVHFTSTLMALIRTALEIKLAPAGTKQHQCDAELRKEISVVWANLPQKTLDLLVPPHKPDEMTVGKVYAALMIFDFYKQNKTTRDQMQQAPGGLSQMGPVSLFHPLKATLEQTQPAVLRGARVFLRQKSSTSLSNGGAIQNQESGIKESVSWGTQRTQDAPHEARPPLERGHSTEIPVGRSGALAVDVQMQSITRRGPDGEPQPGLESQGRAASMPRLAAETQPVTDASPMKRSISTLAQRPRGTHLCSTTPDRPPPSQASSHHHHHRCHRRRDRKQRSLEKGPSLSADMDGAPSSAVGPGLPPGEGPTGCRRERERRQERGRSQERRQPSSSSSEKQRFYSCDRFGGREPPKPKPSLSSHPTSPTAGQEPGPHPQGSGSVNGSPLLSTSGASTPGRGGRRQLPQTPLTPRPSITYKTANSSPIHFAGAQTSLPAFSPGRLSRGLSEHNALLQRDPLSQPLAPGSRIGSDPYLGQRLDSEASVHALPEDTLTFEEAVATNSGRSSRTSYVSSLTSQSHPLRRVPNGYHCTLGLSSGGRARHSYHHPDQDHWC
T1 sequence (P54289 25-956 partner limits assumed): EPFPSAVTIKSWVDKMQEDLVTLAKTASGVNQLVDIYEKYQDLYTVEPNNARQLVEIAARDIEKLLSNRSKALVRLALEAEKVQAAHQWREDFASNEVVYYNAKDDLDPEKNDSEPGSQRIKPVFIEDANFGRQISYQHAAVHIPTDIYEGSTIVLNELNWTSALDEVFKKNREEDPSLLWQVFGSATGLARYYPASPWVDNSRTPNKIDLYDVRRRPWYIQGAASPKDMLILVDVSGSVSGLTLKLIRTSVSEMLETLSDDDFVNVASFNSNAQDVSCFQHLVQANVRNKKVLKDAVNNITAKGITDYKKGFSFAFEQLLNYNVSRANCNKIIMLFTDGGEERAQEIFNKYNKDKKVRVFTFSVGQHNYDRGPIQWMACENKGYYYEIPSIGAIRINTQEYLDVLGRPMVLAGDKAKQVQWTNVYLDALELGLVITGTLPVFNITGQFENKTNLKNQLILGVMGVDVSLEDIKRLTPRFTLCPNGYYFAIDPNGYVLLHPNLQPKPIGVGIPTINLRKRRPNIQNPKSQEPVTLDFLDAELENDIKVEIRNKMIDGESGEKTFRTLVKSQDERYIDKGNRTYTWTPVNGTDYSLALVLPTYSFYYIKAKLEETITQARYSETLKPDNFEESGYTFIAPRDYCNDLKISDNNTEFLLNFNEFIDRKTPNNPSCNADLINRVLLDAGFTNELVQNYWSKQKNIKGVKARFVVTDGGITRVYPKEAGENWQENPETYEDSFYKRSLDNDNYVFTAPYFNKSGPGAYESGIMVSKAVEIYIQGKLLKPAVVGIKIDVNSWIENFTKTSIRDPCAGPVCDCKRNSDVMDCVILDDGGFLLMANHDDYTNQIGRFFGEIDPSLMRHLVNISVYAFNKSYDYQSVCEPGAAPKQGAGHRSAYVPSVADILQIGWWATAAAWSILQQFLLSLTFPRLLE
T1 sequence (P54289 957-1103 partner limits assumed): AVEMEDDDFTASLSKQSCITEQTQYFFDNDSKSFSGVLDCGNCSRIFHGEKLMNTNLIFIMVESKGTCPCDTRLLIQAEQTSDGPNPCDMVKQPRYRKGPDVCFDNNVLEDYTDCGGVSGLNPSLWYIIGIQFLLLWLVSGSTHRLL
T1 sequence (P54284 whole entry partner): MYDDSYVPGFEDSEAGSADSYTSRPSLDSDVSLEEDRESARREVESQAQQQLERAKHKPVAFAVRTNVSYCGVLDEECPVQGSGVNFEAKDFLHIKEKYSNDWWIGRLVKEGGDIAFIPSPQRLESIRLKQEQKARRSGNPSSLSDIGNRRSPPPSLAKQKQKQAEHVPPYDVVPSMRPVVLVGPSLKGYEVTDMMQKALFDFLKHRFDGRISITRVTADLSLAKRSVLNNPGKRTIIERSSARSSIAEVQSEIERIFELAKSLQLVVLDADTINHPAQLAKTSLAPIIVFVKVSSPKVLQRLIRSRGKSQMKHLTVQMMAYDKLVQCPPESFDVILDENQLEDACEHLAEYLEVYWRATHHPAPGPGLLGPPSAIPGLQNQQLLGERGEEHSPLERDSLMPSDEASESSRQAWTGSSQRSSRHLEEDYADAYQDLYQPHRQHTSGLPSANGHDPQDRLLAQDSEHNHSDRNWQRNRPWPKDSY

N[C@@H]1CCCC[C@@H]1C(=O)N1CCC(N(C2CC2)S(=O)(=O)c2cccc(C(F)(F)F)c2)CC1 (racemic) [Compound 4, rac-N-[1-((1S,2R)-2-Amino-cyclohexanecarbonyl)-piperidin-4-yl]-N-cyclopropyl-3-trifluoromethyl-benzenesulfonamide]
IC50 [1]: 0.57 µM
IC50 [2]: > 20 µM

N[C@@H]1CCC[C@@H]1C(=O)N1CCC(N(C2CC2)S(=O)(=O)c2cccc(C(F)(F)F)c2)CC1 (racemic) [Compound 5, rac-N-[1-((1S,2R)-2-Amino-cyclopentanecarbonyl)-piperidin-4-yl]-N-cyclopropyl-3-trifluoromethyl-benzenesulfonamide]
IC50 [1]: 0.29 µM
IC50 [2]: > 20 µM

CC(C)N(C1CCN(C(=O)[C@H]2CCC[C@H]2N)CC1)S(=O)(=O)c1cccc(C(F)(F)F)c1 (racemic) [rac-N-[1-((1S,2R)-2-amino-cyclopentanecarbonyl)-piperidin-4-yl}-N-isopropyl-3-trifluoromethylbenzenesulfonamide]
IC50 [1]: 3.69 µM

O=C(CCN1CCC(O)CC1)N1CCC(N(C2CC2)S(=O)(=O)c2cccc(C(F)(F)F)c2)CC1 [Compound 2, N-Cyclopropyl-N-{1-[3-(4-hydroxy-piperidin-1-yl)-propionyl]-piperidin-4-yl}-3-trifluoromethyl-benzenesulfonamide]
IC50 [1]: 2.47 µM

O=C(CCN[C@H]1CC[C@H](O)CC1)N1CCC(N(C2CC2)S(=O)(=O)c2cccc(C(F)(F)F)c2)CC1 [Compound 3, N-Cyclopropyl-N-{1-[3-(4-hydroxy-cyclohexylamino)-propionyl]-piperidin-4-yl}-3-trifluoromethyl-benzenesulfonamide]
IC50 [1]: 3.04 µM

O=C(c1ccc(=O)[nH]c1)N1CCC(N(C2CC2)S(=O)(=O)c2cccc(C(F)(F)F)c2)CC1 [Compound 6, N-Cyclopropyl-N-[1-(6-oxo-1,6-dihydro-pyridine-3-carbonyl)-piperidin-4-yl]-3-trifluoromethyl-benzenesulfonamide]
IC50 [1]: 8.58 µM

O=C(c1ccccn1)N1CCC(N(C2CC2)S(=O)(=O)c2cccc(C(F)(F)F)c2)CC1 [Compound 7, N-Cyclopropyl-N-[1-(pyridine-2-carbonyl)-piperidin-4-yl]-3-trifluoromethyl-benzenesulfonamide]
IC50 [1]: 5.53 µM

O=C(c1cccnc1)N1CCC(N(C2CC2)S(=O)(=O)c2cccc(C(F)(F)F)c2)CC1 [Compound 8, N-Cyclopropyl-N-[1-(pyridine-3-carbonyl)-piperidin-4-yl]-3-trifluoromethyl-benzenesulfonamide]
IC50 [1]: 7.25 µM

O=C(c1ccncc1)N1CCC(N(C2CC2)S(=O)(=O)c2cccc(C(F)(F)F)c2)CC1 [Compound 9, N-Cyclopropyl-N-[1-(pyridine-4-carbonyl)-piperidin-4-yl]-3-trifluoromethyl-benzenesulfonamide]
IC50 [1]: 8.68 µM

O=C(c1ccccc1[N+](=O)[O-])N1CCC(N(C2CC2)S(=O)(=O)c2cccc(C(F)(F)F)c2)CC1 [Compound 10, N-Cyclopropyl-N-[1-(2-nitro-benzoyl)-piperidin-4-yl]-3-trifluoromethyl-benzenesulfonamide]
IC50 [1]: 0.76 µM
IC50 [2]: 3.06 µM

Nc1ccccc1C(=O)N1CCC(N(C2CC2)S(=O)(=O)c2cccc(C(F)(F)F)c2)CC1 [Compound 11, N-[1-(2-Amino-benzoyl)-piperidin-4-yl]-N-cyclopropyl-3-trifluoromethyl-benzenesulfonamide]
IC50 [1]: 0.68 µM
IC50 [2]: 10 to 20 µM

O=C(c1ccccc1NCCO)N1CCC(N(C2CC2)S(=O)(=O)c2cccc(C(F)(F)F)c2)CC1 [Compound 13, N-Cyclopropyl-N-{1-[2-(2-hydroxy-ethylamino)-benzoyl]-piperidin-4-yl}-3-trifluoromethyl-benzenesulfonamide]
IC50 [1]: 0.33 µM
IC50 [2]: > 20 µM

CC(C)N(C1CCN(C(=O)CNC2CCCCC2)CC1)S(=O)(=O)c1cccc(C(F)(F)F)c1 [Compound 25a, N-[1-(2-Cyclohexylamino-acetyl)-piperidin-4-yl]-N-isopropyl-3-trifluoromethylbenzenesulfonamide]
IC50 [1]: 0.19 µM
IC50 [2]: 10 to 20 µM

CC(C)N(C1CCN(C(=O)CN2CCCC(O)C2)CC1)S(=O)(=O)c1cccc(C(F)(F)F)c1 (stereo not drawn) [Compound 25b, N-{1-[2-(3-Hydroxy-piperidin-1-yl)-acetyl]-piperidin-4-yl}-N-isopropyl-3-trifluoromethylbenzenesulfonamide]
IC50 [1]: 3.35 µM

O=C(CNC1CCCC1)N1CCC(N(C2CC2)S(=O)(=O)c2cccc(C(F)(F)F)c2)CC1 [Compound 25c, N-[1-(2-Cyclopentylamino-acetyl)-piperidin-4-yl]-N-cyclopropyl-3-trifluoromethylbenzenesulfonamide]
IC50 [1]: 0.28 µM
IC50 [2]: > 20 µM

CC(C)N(C1CCN(C(=O)CN2Cc3ccccc3C2)CC1)S(=O)(=O)c1cccc(C(F)(F)F)c1 [Compound 25d, N-[1-(2-1,3-Dihydro-isoindol-2-yl-acetyl)-piperidin-4-yl]-N-isopropyl-3-trifluoromethylbenzenesulfonamide]
IC50 [1]: 1.14 µM

CC(C)N(C1CCN(C(=O)CN2CCCC(F)(F)C2)CC1)S(=O)(=O)c1cccc(C(F)(F)F)c1 [Compound 25e, N-{1-[2-(3,3-Difluoro-piperidin-1-yl)-acetyl]-piperidin-4-yl}-N-isopropyl-3-trifluoromethylbenzenesulfonamide]
IC50 [1]: 0.88 µM
IC50 [2]: > 20 µM

CC(C)N(C1CCN(C(=O)CN2CCC(F)(F)C2)CC1)S(=O)(=O)c1cccc(C(F)(F)F)c1 [Compound 25f, N-{1-[2-(3,3-Difluoro-pyrrolidin-1-yl)-acetyl]-piperidin-4-yl}-N-isopropyl-3-trifluoromethylbenzenesulfonamide]
IC50 [1]: 3.98 µM
IC50 [2]: 7.81 µM

— patent US8937181B2, “Benzenesulfonamide compounds and the use thereof” (Purdue Pharma L.P., priority 2006, dated 2015)
